# Assay results from paper PMC6235670, “An mTOR Signaling Modulator Suppressed Heterotopic Ossification of Fibrodysplasia Ossificans Progressiva” (Stem Cell Reports, 2018).
# Where two headings read alike, the source gives them in different places.
# Tests used:
# [1] = system: ATDC5/FOP-ACVR1 cells; experiment: ALP assay (HTS and dose-response) in ATDC5/FOP-ACVR1; type: cell-based, mouse; conditions: same protocol as HTS (72 h)
# [2] = system: ATDC5/FOP-ACVR1 cells; experiment: AlamarBlue viability assay in ATDC5/FOP-ACVR1; conditions: for Viability (%) @10 μM: AlamarBlue, ATDC5/FOP-ACVR1, 10 μM
# Procedure: (§1) Generation of ATDC5 stably expressing ACVR1. WT - or FOP-ACVR1 was inserted into doxycycline (Dox)- […]
# (§2) (KW111/WT-ACVR1 or KW111/FOP-ACVR1). KW111/WT-ACVR1 or KW111/FOP-ACVR1 and PBaseII […]
# (§3) FuGeneHD® (Promega) according to the manufacturer’s protocol, and the neomycin- resistant population (500 µg/mL) was selected. Further selection was performed by selecting a mCherry high positive population (< 5%) after six hours of Dox treatment, sorting it with fluorescent-activated cell sorting (FACS) using AriaII (BD) according to the manufacturer’s protocol, and designating it as ATDC5/WT-ACVR1 or ATDC5/FOP-ACVR1.
# (§4) KW111 included PB, active transposable PB elements; TRE-mCMVP, Tetracycline Response Element and a minimal CMV promoter; rtTA, reverse tetracycline-controlled transactivator. PBaseII was an expression plasmid vector containing the PB transposase cDNA with optimized codon usage to human under the control […]
# (§5) HTS campaign and follow-up screens. ATDC5/FOP-ACVR1 cells were plated in 96-well white plates (2,000 cells/well/40 µ L, Corning) in DMEM/F-12 supplemented with 5% (v/v) FBS. […]
# (§6) 37 °C under 5% CO2. After 3 days incubation, Alkaline Phosphatase activity (ALP) or AlamarBlue activity was measured using Amplite™ Colorimetric Alkaline Phosphatase Assay Kit (AAT Bioquest) or alamarBlue® Cell Viability Reagent (Thermo Fisher Scientific) according to the manufacturer’s protocol, respectively. T h e […]
# (§7) was measured on POWERSCAN4 (DS Pharma Biomedical) or EnVision® Multilabel Reader (PerkinElmer).
# (§8) Inhibitory effects of the screened compounds are given as percent inhibition, which was calculated using the following equation: (1-([Abs of compound] - [Abs of Min])/([Abs of Max] - [Abs of Min]))× 100, where [Abs of Max] and [Abs of Min] are the mean Abs of DMSO control and 1 µM DMH-1, respectively. The Z’ factor, which is widely used as a measure of the assay quality of each plate, was calculated using the following equation: Z’ factor = 1 - 3 × ([SD of Max] + [SD of Min])/([Abs of Max] - [Abs of Min]) (SI Appendix, Fig.
# (§9) The S/B (signal-to-background) ratio was calculated using the following equation: ([Abs of Max]/[Abs of Min]) (SI Appendix, Fig. S3B).
# (§10) Using ATDC5/FOP-ACVR1 cells, we performed a first screening (n=2; test compounds = 1 µM, Fig. […]
# [3] = AlamarBlue viability assay in ATDC5/FOP-ACVR1; conditions: mouse, ATDC5 cells stably expressing FOP-ACVR1 (ATDC5/FOP-ACVR1)
# Procedure: as §1, §2, §3, §4, §5, §6, §7, §8, §9, §10
# [4] = system: ATDC5/FOP-ACVR1 cells; experiment: ALP assay (HTS and dose-response) in ATDC5/FOP-ACVR1; type: cell-based, mouse
# Procedure: ATDC5/FOP-ACVR1 cells were plated in 96-well white plates (2,000 cells/well/40 μL, Corning) in DMEM/F-12 supplemented with 5% (v/v) FBS. Two hours after incubation at 37°C under 5% CO2, 10 μL of test compounds (final 1 μM) was added, and the assay plates were incubated at 37°C under 5% CO2. After 3 days of incubation, ALP activity was measured using an Amplite Colorimetric Alkaline Phosphatase Assay Kit (AAT Bioquest) according to the manufacturer's protocol.
# as §1, §2
# FuGeneHD® (Promega) according to the manufacturer’s protocol, and the neomycin- resistant population (500 µg/mL) was selected. […]
# as §6, with “HTS campaign and follow-up screens. […]” for “37 °C under 5% CO2.”, “respectively.” for “respectively. T h e”
# as §7, §8
# The S/B (signal-to-background) ratio was calculated using the following equation: ([Abs of Max]/[Abs of Min]) (SI Appendix, Fig. S3B). […]
# [5] = system: FOP-iMSCs; experiment: Microarray / pathway analysis of activin A-induced chondrogenesis of FOP-iMSCs; type: cell-based, human; conditions: 100 nM, 100 ng/mL Activin-A, 7 days, microarray, N = 1
# Procedure: Microarray experiments. 2D chondrogenic induction was performed in FOP-iMSCs stimulated with or without 100 ng/mL Activin-A, TAK 165, CP-724714 and Lapatinib. Seven days after incubation, mRNA was extracted. RNA was reverse transcribed, biotin-labeled and hybridized to GeneChip Human Gene 1.0 ST Expression Array, which was subsequently washed and scanned according to the manufacturer’s instructions (Affymetrix). Raw CEL files were imported into GeneSpring GX 12.6.1 software (Agilent Technologies), and expression values were calculated with the RMA16 algorithm. Pathway analysis was performed by Ingenuity pathway analysis (Qiagen). […]
# [6] = system: FOP-iMSCs; experiment: 2D chondrogenic induction of FOP-iMSCs with activin A (GAG, Alcian blue); type: cell-based, human; conditions: activin A, 7 days; for effect on GAG in the chondrogenesis of FOP-iMSCs (ERBB2 kinase inhibitors): 100 nM and 1 µM
# [7] = system: mTOR signaling (p-S6); experiment: p-S6 western blotting during chondrogenic induction of FOP-iMSCs with activin A; type: cell-based, human
# Procedure: Western blotting. SDS- PAGE and blotting with whole-cell lysates were performed by standard procedures.
# Protein bands were detected with ECL Prime Western Blotting Detection Reagent (GE Healthcare) and visualized using BIO-RAD Molecular Imager® Chemi-DocTM XRS+ with Image LabTM software (Bio-Rad).
# All data (relative intensity) were corrected by β-actin.
# Antibodies for western blotting and immunostaining.
# N ame Company Cat. No Concentration
# Human Activin RIA/ALK-2 Antibody R&D Systems) AF637 1:100
# Anti-human Vimentin antibody Abcam ab16700 1:40
# Collagen I Antibody Novus NB600- 1:100
# Anti-rabbit IgG, HRP-linked Antibody Cell Signaling #7074 1:10000 […]
# 2nd Goat anti-Rabbit IgG (H+L) Secondary Antibody, Invitrogen A-11008 1:100 antibody Alexa Fluor® 488 conjugate
# Goat anti-Rabbit IgG (H+L) Secondary Antibody, Invitrogen A-21428 1:500
# [8] = system: TGF-β signaling (CAGA-Luc); experiment: CAGA-Luc reporter assay in FOP-iMSCs; type: cell-based, human; conditions: activin A and compounds for 3 hr
# Procedure: (§11) FOP-iMSCs transiently transfected with BRE-Luc (A) or CAGA-Luc (B) with CMV-Renilla were stimulated with activin A and compounds for 16 hr (A) or 3 hr (B). […] One day after siRNA transfection, chondrogenic induction with activin A was initiated, and after 7 days the cells were harvested. […] FOP-iMSCs cultured with 10% FBS were treated with 100 nM rapamycin (Rapa) or TAK 165 (TAK) for 2 hr, and the cells were harvested. […] 1 μM TAK, 1 μM CP (CP-724714, another selective ERBB2 inhibitor), or 10 nM Rapa were applied in the experiments.
# [9] = system: BMP signaling (BRE-Luc); experiment: BRE-Luc reporter assay in FOP-iMSCs; type: cell-based, human; conditions: activin A and compounds for 16 hr
# Procedure: as §11
compound,measurement,setting,value
Nc1ncnc2c1c(-c1cccc(OCc3ccccc3)c1)cn2C1CC(CN2CCCC2)C1 (stereo not drawn) [NVP-ADW742],IC50,[1],6570 nM
same,Viability (%) @10 μM,[2],-1%
Cc1ccc(-n2nc(C(C)(C)C)cc2NC(=O)Nc2ccc(OCCN3CCOCC3)c3ccccc23)cc1 [BIRB 796],IC50,[1]; Mus musculus,9 nM
same,"viability at 3 days, 10 µM",[3],99%
C=C1/C(=C\C=C2/CCC[C@]3(C)[C@@H]([C@H](C)CCCC(C)(C)O)CC[C@@H]23)C[C@@H](O)C[C@@H]1O [Calcitriol],IC50,"[4]; Mus musculus, 72 h, read-out: IC50 (ALP assay)",0.4 nM
same,"viability at 3 days, 10 µM",[3],81%
CS(=O)(=O)CCNCc1ccc(-c2ccc3ncnc(Nc4ccc(OCc5cccc(F)c5)c(Cl)c4)c3c2)o1 [lapatinib],ADAMTS5 expression ratio to the TAK 165-treated group,[5],2.1
same,BMP4 expression ratio to the TAK 165-treated group,[5],0.4
same,DKK1 expression ratio to the TAK 165-treated group,[5],2.1
same,FOS expression ratio to the TAK 165-treated group,[5],2.4
same,FRZB expression ratio to the TAK 165-treated group,[5],3.0
same,FZD3 expression ratio to the TAK 165-treated group,[5],0.4
same,ITGA3 expression ratio to the TAK 165-treated group,[5],2.5
same,ITGB3 expression ratio to the TAK 165-treated group,[5],3.6
same,MMP1 expression ratio to the TAK 165-treated group,[5],3.0
same,MMP13 expression ratio to the TAK 165-treated group,[5],6.9
same,PIK3R3 expression ratio to the TAK 165-treated group,[5],2.1
same,SPP1 expression ratio to the TAK 165-treated group,[5],3.7
same,TNFRSF11B expression ratio to the TAK 165-treated group,[5],0.5
same,WIF1 expression ratio to the TAK 165-treated group,[5],0.1
same,WNT16 expression ratio to the TAK 165-treated group,[5],0.5
same,effect on GAG in the chondrogenesis of FOP-iMSCs (ERBB2 kinase inhibitors),[6],no effect
CC(C)Oc1ccc(-c2cnc3c(-c4ccnc5ccccc45)cnn3c2)cc1 [DMH-1],ALP activity of ATDC5/FOP-ACVR1,"[4]; 72 hr after Dox and compound, without BMP stimulation",inhibited
same,IC50,[1],21 nM
same,viability (AlamarBlue) of ATDC5/FOP-ACVR1,[2]; 72 hr after Dox and compound,not
same,Viability (%) @10 μM,[2],92%
COc1ccc(-c2ccc3c(N4CCOC[C@@H]4C)nc(N4CCOC[C@@H]4C)nc3n2)cc1CO [AZD8055],IC50,[1]; Mus musculus,77 nM
same,"viability at 3 days, 10 µM",[3],25%
CCc1c2c(nc3ccc(O)cc13)-c1cc3c(c(=O)n1C2)COC(=O)[C@]3(O)CC [SN 38],IC50,[1],98 nM
same,Viability (%) @10 μM,[2],17%
Cn1c(=O)n(-c2ccc(C(C)(C)C#N)cc2)c2c3cc(-c4cnc5ccccc5c4)ccc3ncc21 [BEZ235],IC50,[1]; Mus musculus,87 nM
same,"viability at 3 days, 10 µM",[3],21%
COCC(=O)NC/C=C/c1ccc2ncnc(Nc3ccc(Oc4ccc(C)nc4)c(C)c3)c2c1 [CP-724714],ADAMTS5 expression ratio to the TAK 165-treated group,[5],3.1
same,BMP4 expression ratio to the TAK 165-treated group,[5],5.2
same,DKK1 expression ratio to the TAK 165-treated group,[5],0.2
same,FOS expression ratio to the TAK 165-treated group,[5],3.2
same,FRZB expression ratio to the TAK 165-treated group,[5],3.6
same,FZD3 expression ratio to the TAK 165-treated group,[5],0.3
same,ITGA3 expression ratio to the TAK 165-treated group,[5],3.9
same,ITGB3 expression ratio to the TAK 165-treated group,[5],3.3
same,MMP1 expression ratio to the TAK 165-treated group,[5],11.5
same,MMP13 expression ratio to the TAK 165-treated group,[5],5.4
same,PIK3R3 expression ratio to the TAK 165-treated group,[5],0.4
same,SPP1 expression ratio to the TAK 165-treated group,[5],4.4
same,TNFRSF11B expression ratio to the TAK 165-treated group,[5],3.4
same,WIF1 expression ratio to the TAK 165-treated group,[5],0.1
same,WNT16 expression ratio to the TAK 165-treated group,[5],3.0
same,effect on GAG in the chondrogenesis of FOP-iMSCs (ERBB2 kinase inhibitors),[6],no effect
same,p-S6 after 24-hr stimulation,"[7]; 1 μM, 24 hr",no effects
same,p-S6 after 7 days of stimulation,"[7]; 1 μM, 7 days",not
CCN(CC)CCCCNc1ncc2cc(-c3c(Cl)cccc3Cl)c(NC(=O)NC(C)(C)C)nc2n1 [PD 161570],CAGA-Luc (TGF-β-responsive luciferase reporter),[8],inhibited
same,IC50,[1],317 nM
same,inhibition of glycosaminoglycan (GAG) production,[6]; 1 μM,potent inhibition
same,"suppression of chondrogenic induction (GAG), dose dependence",[6],dose-dependent
same,BRE-Luc (BMP-specific luciferase reporter),[9],inhibited
same,p-S6 levels from 2 hr after treatment,[7]; 1 µM,significantly inhibited
same,Viability (%) @10 μM,[2],63%
C=C1/C(=C\C=C2/CCC[C@]3(C)[C@@H]([C@H](C)CCCC(C)C)CC[C@@H]23)C[C@@H](O)C[C@@H]1O [Alfacalcidol],IC50,[1]; Mus musculus,526 nM
same,"viability at 3 days, 10 µM",[3],54%
pertuzumab: ERBB2-selective neutralizing antibody,effect on GAG in the chondrogenesis of FOP-iMSCs (ERBB2 neutralizing antibodies),[6]; 1 µg/mL,no effect
C=C1/C(=C\C=C2/CCC[C@]3(C)[C@@H]([C@H](C)/C=C/[C@@H](O)C4CC4)CC[C@@H]23)C[C@@H](O)C[C@@H]1O [Calcipotriol],IC50,[1]; Mus musculus,0.3 nM
same,"viability at 3 days, 10 µM",[3],80%
CC(C)(C)Cn1c(N)nc2ccc(-c3[nH]c(C(C)(C)C)nc3-c3ccc(F)cc3)nc21 [LY2228820],IC50,[1]; Mus musculus,11 nM
same,"viability at 3 days, 10 µM",[3],75%
CC(C)(C)n1nc(-c2cccc3ccccc23)c2c(N)ncnc21 [1-Naphthyl PP1],IC50,[1],12200 nM
same,Viability (%) @10 μM,[2],83%
